In US5216001A, “Indole derivatives” (H. Lunbeck A/S, priority 1990, dated 1993):
pIC50: −log10 of the molar value. Where two headings read alike, the source gives them in different places.

Assays:
α1 adrenoceptors = experiment: inhibition of 3H-prazosin binding to α1 adrenoceptors in rat brain in vitro; details: 3H-prazosin 0.25 nM, rat brain membranes, read-out: Binding IC50, 3H Praz.
Protocol: INHIBITION OF ^3 H-PRAZOSIN BINDING TO α1 ADRENOCEPTORS IN RAT BRAIN IN VITRO
Method and results in Hyttel and Larsen, J. Neurochem, 44, 1615-1622, 1985; Skarsfeldt and Hyttel, Eur. J. Pharmacol. 125, 323-340, 1986.
Male Wistar (Mol:Wist) rats (125-200 g) are sacrificed and brain tissue is dissected and weighed. The tissue is homogenized (Ultra Turrax, 10 sec.) in 10 ml of ice-cold […] Tris buffer pH 7.7 (at 25° C.). The homogenate is centrifuged twice at 20,000 g for 10 min. at 4° C. with rehomogenization of the pellet in 10 ml ice-cold buffer. The final pellet is homogenized in 400 vol (w/v) ice-cold buffer.
Incubation tubes kept on ice in triplicate receive 100 μl of drug solution in water (or water for total binding) and 4000 μl of tissue suspension (final tissue content corresponds to 10 mg original tissue). The binding experiment is initiated by addition of 100 μl of ^3 H-Prazosin (final concentration 0.25 nM) and by placing the tubes in a 25° C. water bath. After incubation for 20 min. the samples are filtered under vacuum (0-50 mBar) through Whatman GF/F filters (25 mm). The tubes are rinsed with 5 ml ice-cold buffer which then are poured on the filters. Thereafter, the filters are washed with 5 ml of buffer. The filters are placed in counting vials and 4 ml of appropriate scintillation fluid (e.g. Picofluor™15) are added. After shaking for 1 h and storage 2 hrs in the dark the content of radioactivity is determined by liquid scintillation counting. Specific binding is obtained by subtracting the nonspecific binding in the presence of 1 μM of Prazosin.
For determination of the inhibition of binding five concentrations of drugs covering 3 decades are used.
The measured cpm are plotted against drug concentration on semilogarithmic paper and the best fitting S-shaped curve is drawn. The IC50 value is determined as the concentration at which the binding is 50% of the total binding in control samples minus the nonspecific binding in the presence of 1 μM of Prazosin. ^3 H-Prazosin=[furoyl-5-^3 H]-Prazosin from New England Nuclear, specific activity approximately 20 Ci/mmol.

[1] = Klieser and Strauss 1988; cited from earlier work
[2] = Bersani et al. 1990; cited from earlier work
[3] = Janssen 1988; cited from earlier work
5-HT2 [4] = target: T1, 5-HT2 (Rattus norvegicus, UniProt P14842); experiment: quipazine inhibition (quipazine-induced head twitches in rats); assay type: in vivo; details: for ED50: sc, read-out: Quipazine inhibition ED50, 2h (sc), s.c., 2 h before quipazine
T1 construct: Four rats, male Wistar (Mol:Wist) SPF rats weighing 170-240 g; from tissue; host or cells: living male Wistar (Mol:Wist) SPF rats (in vivo, endogenous receptor)
Protocol: Quipazine is a 5-HT2 agonist, which induces head twitches in rats. The test is a test for 5-HT2 -antagonistic effect testing the ability to inhibit head twitches. The method and test results for some reference substances are published by Arnt et al. (Drug Development Research, 16, 59-70, 1989).
Test substance is injected s.c. 2 hrs before or p.o. 24 hrs before quipazine administration (6.8 mg/kg, s.c., dimaleate). Four rats, male Wistar (Mol:Wist) SPF rats weighing 170-240 g, are used at each dose level. A control group is included each test day. By repeated testing (2, 24 hrs) the control group is the same, however. After quipazine administration the rats are individually placed in the observation cages and head twitches are counted in an observation period of 30-40 min. after injection of quipazine.
Total number of head twitches in each group is calculated and the result for each dose is expressed as per cent of the response in the control group. ED50 values are calculated by log-probit analysis. The test must be repeated if the average number of head twitches is lower than 9 in the control group.

5-HT2 [5] = target: T1, 5-HT2; experiment: as above; assay type: in vivo; details: sc, s.c. (marked in cell), 24 h before quipazine, read-out: Quipazine inhibition ED50, 24h (sc)
[6] = animal test, Colpart et al. 1985; cited from earlier work
DA D-2 = target: T2, DA D-2 (Rattus norvegicus, UniProt P61169); experiment: antagonism of pergolide-induced circling behaviour in rats with unilateral 6-OHDA lesions; assay type: in vivo; details: sc, read-out: Pergolide rot. inhibition ED50, 2h (sc), 6-OHDA lesions, s.c., 2 h before pergolide
T2 construct: Male Wistar rats (Mol:Wist) weighing about 200 g at the time of operation are used; from tissue; host or cells: living male Wistar (Mol:Wist) rats with unilateral 6-OHDA lesions (in vivo, endogenous receptor)
Protocol: ANTAGONISM OF PERGOLIDE-INDUCED CIRCLING BEHAVIOUR IN RATS WITH UNILATERAL 6-OHDA LESIONS
Dopamine (DA) D-2 agonists induce contralateral circling behaviour in rats with 6-OHDA lesions. Pergolide-induced circling is antagonized by DA D-2 antagonists.
Male Wistar rats (Mol:Wist) weighing about 200 g at the time of operation are used. Unilateral lesions are made in pentobarbital anaesthetized rats by injection of 6-OHDA. HCl 9.7 μg/μl (equivalent to 8 μg free base) per 4 min. into the rostral tip of the substantia nigra. The saline solution contains ascorbic acid 0.2 mg/ml, is bubbled with N2 and is kept ice-cold. The experiments are done when stable contralateral circling responses to pergolide (0.05 μmol/kg, s.c.) are obtained. The circling response is measured in rotometer bowls. Only rats showing more than 400 complete turns in 2 hrs control session are used. Dose-response curves are obtained by alternating test and control sessions on a weekly basis. The antagonists are injected s.c. 2 hrs before the agonist. The effect of individual doses of test drugs is calculated as per cent of the mean effect of control sessions one week before and one week after the test session for each rat. ED50 values are calculated by log-probit analysis. Four to eight rats are used at each dosage.

T1 sequence (P14842 whole entry): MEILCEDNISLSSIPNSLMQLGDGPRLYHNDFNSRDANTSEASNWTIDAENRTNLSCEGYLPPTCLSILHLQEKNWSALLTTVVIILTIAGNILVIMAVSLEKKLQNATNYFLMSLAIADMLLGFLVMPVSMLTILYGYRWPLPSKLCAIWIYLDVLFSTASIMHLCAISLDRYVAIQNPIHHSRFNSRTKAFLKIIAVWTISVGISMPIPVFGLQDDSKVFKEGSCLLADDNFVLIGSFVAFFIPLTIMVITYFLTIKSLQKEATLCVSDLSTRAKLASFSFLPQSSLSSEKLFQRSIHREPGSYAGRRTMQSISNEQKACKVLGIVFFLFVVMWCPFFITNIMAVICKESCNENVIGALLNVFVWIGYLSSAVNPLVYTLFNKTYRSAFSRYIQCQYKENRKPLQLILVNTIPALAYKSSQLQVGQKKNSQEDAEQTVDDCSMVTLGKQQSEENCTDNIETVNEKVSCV
T2 sequence (P61169 whole entry): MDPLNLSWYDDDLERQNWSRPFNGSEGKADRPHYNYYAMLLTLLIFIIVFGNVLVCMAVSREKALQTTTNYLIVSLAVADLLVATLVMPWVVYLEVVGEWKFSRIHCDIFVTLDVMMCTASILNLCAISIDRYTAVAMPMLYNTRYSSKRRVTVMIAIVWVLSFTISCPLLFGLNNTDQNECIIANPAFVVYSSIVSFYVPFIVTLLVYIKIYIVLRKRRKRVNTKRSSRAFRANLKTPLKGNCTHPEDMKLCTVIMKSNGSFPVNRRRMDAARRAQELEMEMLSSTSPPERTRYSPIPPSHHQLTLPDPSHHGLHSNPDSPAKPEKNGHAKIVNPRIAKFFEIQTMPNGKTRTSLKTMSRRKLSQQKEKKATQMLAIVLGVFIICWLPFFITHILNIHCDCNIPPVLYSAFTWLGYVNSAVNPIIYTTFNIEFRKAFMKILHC

SMILES: Cc1nc2sccn2c(=O)c1CCN1CCC(=C(c2ccc(F)cc2)c2ccc(F)cc2)CC1 [ritanserin]
- pIC50 (α1 adrenoceptors): 7.33
- antidepressant effect and depressive symptoms of schizophrenia [1]: has been shown to be an antidepressant and to improve depressive symptoms of schizophrenia
- neuroleptic-induced parkinsonism [2]: relieve neuroleptic-induced parkinsonism
- quality of sleep [3]: improve the quality of sleep
- ED50 (5-HT2 [4]): 0.08 µmol/kg
- ED50 (5-HT2 [5]): 0.98 µmol/kg
- effects reminiscent of anxiolytic drug activity [6]: exert effects in an animal test reminiscent of anxiolytic drug activity
- ED50 (DA D-2): > 21 µmol/kg

SMILES: O=C1NCCN1CCN1CCC(c2cn(-c3ccc(F)cc3)c3ccc(Cl)cc23)CC1 [sertindole (Lu 23-174), 5-chloro-1-(4-fluorophenyl)-3-[1-[2-(2-imidazolidinon-1-yl)ethyl]-4-piperidyl]-1H-indole, reference compound]
- pIC50 (α1 adrenoceptors): 8.47
- Quipazine inhibition ED50, 24h (po) (5-HT2 [4]; p.o., 24 h before quipazine): 0.04 µmol/kg
- ED50 (5-HT2 [4]): 0.04 µmol/kg
- ED50 (DA D-2): 7.2 µmol/kg
